Our source for the T/C values is PubChem BioAssay AID328 (DTP/NCI, 2004).

Each structure is given as a SMILES string. Where “and” joins values, the source holds several entries; their conditions need not be identical. Equal values may be shown once. Toxic doses and inconclusive results are not listed.

The test relates to BDF1 mice, P388 leukemia ip, median survival T/C. As to the kind of experiment: NCI In Vivo Anticancer Drug Screen. Data for tumor model P388 Leukemia (intraperitoneal) in B6D2F1 (BDF1) mice. Particulars: endpoint: median survival time, higher = longer survival. The gist of the method: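 In tumour-bearing mice, survival after compound treatment is set against the vehicle group and given as a quotient.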

Setting [1] is: dose: 100.0 mg/kg/injection, schedule: Q01DX009 (ip), vehicle: saline.
Setting [2] is: dose: 100.0 mg/kg/injection, schedule: Q04DX003 (ip), vehicle: saline.
Setting [3] is: dose: 200.0 mg/kg/injection, schedule: Q01DX009 (ip), vehicle: saline.
Setting [4] is: dose: 200.0 mg/kg/injection, schedule: Q04DX003 (ip), vehicle: saline.
Where [5] appears, read: dose: 400.0 mg/kg/injection, schedule: Q01DX009 (ip), vehicle: saline.
Where [6] appears, read: dose: 400.0 mg/kg/injection, schedule: Q04DX003 (ip), vehicle: saline.
Where [7] appears, read: dose: 50.0 mg/kg/injection, schedule: Q01DX009 (ip), vehicle: saline with Tween-80.
The mark [8] stands for this setting: dose: 100.0 mg/kg/injection, schedule: Q01DX009 (ip), vehicle: saline with Tween-80.
The mark [9] stands for this setting: dose: 200.0 mg/kg/injection, schedule: Q01DX009 (ip), vehicle: saline with Tween-80.
The mark [10] stands for this setting: dose: 100.0 mg/kg/injection, schedule: Q04DX003 (ip), vehicle: saline with Tween-80.
The mark [11] stands for this setting: dose: 200.0 mg/kg/injection, schedule: Q04DX003 (ip), vehicle: saline with Tween-80.

As for `BrC1C2C=CCC1CC2` (centres undefined), the T/C was 100 % of control under setting [1]; 91 % of control under setting [2]; 90 % of control under setting [3]; 91 % of control under setting [4]; 104 % of control under setting [5]; 95 % of control under setting [6].
On to `Cc1cc(O)c2c3c(ccc2c1)C(=O)c1c(O)cccc1C3=O`, for which the T/C runs as follows: (dose: 0.5 mg/kg/injection, schedule: Q01DX009 (ip), vehicle: Klucel (hydroxypropylcellulose) (HPC)) 109 % of control; (dose: 1.0 mg/kg/injection, schedule: Q01DX009 (ip), vehicle: Klucel (hydroxypropylcellulose) (HPC)) 110 % of control; (dose: 2.0 mg/kg/injection, schedule: Q01DX009 (ip), vehicle: Klucel (hydroxypropylcellulose) (HPC)) 101 % of control; (dose: 4.0 mg/kg/injection, schedule: Q01DX009 (ip), vehicle: Klucel (hydroxypropylcellulose) (HPC)) 101 % of control.
On to `COC1/C=C\OC2(C)Oc3c(C)c(O)c4c(c3C2=O)C(=O)C=C(NC(=O)C(C)=C/C=C\C(C)C(O)C(C)C2OC(C)(C)OC(C1C)C2C)C4=O` (centres undefined), for which the T/C was 103 % of control under setting [7], 100 % of control under setting [8] and 93 % of control under setting [9].
Turning to `O=CC(S)CO` (centres undefined), the T/C is, setting by setting: (dose: 12.5 mg/kg/injection, schedule: Q01DX010 (ip), vehicle: carboxymethylcellulose (CMC)) 122 % of control; (dose: 25.0 mg/kg/injection, schedule: Q01DX010 (ip), vehicle: carboxymethylcellulose (CMC)) 122 % of control; (dose: 50.0 mg/kg/injection, schedule: Q01DX010 (ip), vehicle: carboxymethylcellulose (CMC)) 166 % of control; (dose: 100.0 mg/kg/injection, schedule: Q01DX010 (ip), vehicle: carboxymethylcellulose (CMC)) 166 % of control.
Regarding `CC(=O)OC1CCC2(C)C(CC(=O)C(C)C2(O)CCc2ccoc2)C1(C)C` (centres undefined), the T/C is 91 % of control (dose: 25.0 mg/kg/injection, schedule: Q01DX009 (ip), vehicle: saline + alcohol); 112 % of control (dose: 50.0 mg/kg/injection, schedule: Q01DX009 (ip), vehicle: saline + alcohol); 112 % of control (dose: 100.0 mg/kg/injection, schedule: Q01DX009 (ip), vehicle: saline + alcohol).
Take `COc1cccc(CN2CCNCC2)c1`: the T/C runs as follows: (dose: 6.25 mg/kg/injection, schedule: Q04DX003 (ip), vehicle: water) 87 % of control; (dose: 12.5 mg/kg/injection, schedule: Q04DX003 (ip), vehicle: water) 89 % of control; (dose: 25.0 mg/kg/injection, schedule: Q04DX003 (ip), vehicle: water) 93 % of control; (dose: 50.0 mg/kg/injection, schedule: Q04DX003 (ip), vehicle: water) 101 % of control; (dose: 100.0 mg/kg/injection, schedule: Q04DX003 (ip), vehicle: water) 94 % of control.
For `O=[N+]([O-])c1ccc(NC2CCCCC2)c2c1no[n+]2[O-]`, the T/C by setting is: (dose: 6.25 mg/kg/injection, schedule: Q01DX009 (ip), vehicle: saline) 95 % of control; (dose: 12.5 mg/kg/injection, schedule: Q01DX009 (ip), vehicle: saline) 97 % of control; (dose: 25.0 mg/kg/injection, schedule: Q01DX009 (ip), vehicle: saline) 95 % of control.
Take `Cc1ccc(NC(=O)/C=C\C(=O)O)cc1`: the T/C reads like this: (dose: 100.0 mg/kg/injection, schedule: Q04DX003 (ip), vehicle: Klucel (hydroxypropylcellulose) (HPC)) 108 % of control; (dose: 200.0 mg/kg/injection, schedule: Q04DX003 (ip), vehicle: Klucel (hydroxypropylcellulose) (HPC)) 100 % of control; (dose: 400.0 mg/kg/injection, schedule: Q04DX003 (ip), vehicle: Klucel (hydroxypropylcellulose) (HPC)) 100 % of control.
For the molecule `CC1(O)CCC2C3CCC4CC(=O)CCC4(C)C3(F)C(O)CC21C` (centres undefined), the T/C reads like this: (dose: 100.0 mg/kg/injection, schedule: Q01DX001 (ip), vehicle: saline) 100 % of control; under setting [1], 90 % of control; under setting [2], 104 % of control; (dose: 200.0 mg/kg/injection, schedule: Q01DX001 (ip), vehicle: saline) 86 % of control; under setting [3], 109 % of control; under setting [4], 104 % of control. Further, the T/C reads like this: (dose: 400.0 mg/kg/injection, schedule: Q01DX001 (ip), vehicle: saline) 95 % of control; under setting [5], 113 % of control; under setting [6], 104 % of control.
With `CCCN(CCC)CCSC(=S)NCCOC`, the T/C reads like this: under setting [7], 100 % of control; under setting [8], 113 % of control.
Turning to `O=C(Cn1ccc(O)cc1=O)N1CCC2(CC1)SSC1(CCN(C(=O)Cn3ccc(O)cc3=O)CC1)S2`, the T/C is, setting by setting: under setting [1], 100 % of control; under setting [2], 105 % of control; under setting [3], 100 % of control; under setting [4], 116 % of control; under setting [5], 95 % of control; under setting [6], 122 % of control.
As for `N#Cc1c[nH]n2c(=S)ncnc12`, the T/C runs as follows: under setting [7], 107 % of control; under setting [8], 90 % of control; under setting [10], 104 % of control; under setting [9], 93 % of control; under setting [11], 109 % of control; (dose: 300.0 mg/kg/injection, schedule: Q01DX009 (ip), vehicle: saline with Tween-80) 99 % of control.
As for `CCCC(=O)N(C)C(C)C(=O)OC1CC(=O)N(C)c2cc(cc(OC)c2Cl)C/C(C)=C/C=CC(OC)C2(O)CC(OC(=O)N2)C(C)C2OC12C` (centres undefined), the T/C runs as follows: (dose: 0.1 micrograms/kg/injection, schedule: Q01DX009 (ip), vehicle: saline + alcohol) 97 % of control; (dose: 0.2 micrograms/kg/injection, schedule: Q01DX009 (ip), vehicle: saline + alcohol) 93 % of control; (dose: 0.4 micrograms/kg/injection, schedule: Q01DX009 (ip), vehicle: saline + alcohol) 104 % of control; (dose: 0.8 micrograms/kg/injection, schedule: Q01DX009 (ip), vehicle: saline + alcohol) 96 % of control and 112 % of control; (dose: 0.8 micrograms/kg/injection, schedule: Q01DX009 (ip), vehicle: saline) 104 % of control; (dose: 1.6 micrograms/kg/injection, schedule: Q01DX009 (ip), vehicle: saline + alcohol) 102 % of control and 107 % of control. Moreover, the T/C (dose: 1.6 micrograms/kg/injection, schedule: Q01DX009 (ip), vehicle: saline) was 105 % of control; the T/C (dose: 3.1 micrograms/kg/injection, schedule: Q01DX009 (ip), vehicle: saline + alcohol) was 88 % of control and 111 % of control; the T/C (dose: 3.1 micrograms/kg/injection, schedule: Q01DX009 (ip), vehicle: saline) is 105 % of control; the T/C (dose: 6.2 micrograms/kg/injection, schedule: Q01DX009 (ip), vehicle: saline + alcohol) is 92 % of control and 114 % of control; the T/C (dose: 6.2 micrograms/kg/injection, schedule: Q01DX009 (ip), vehicle: saline) was 96 % of control; the T/C (dose: 12.5 micrograms/kg/injection, schedule: Q01DX009 (ip), vehicle: saline + alcohol) was 113 % of control. Further, the T/C reads like this: (dose: 12.5 micrograms/kg/injection, schedule: Q01DX009 (ip), vehicle: saline) 110 % of control; (dose: 25.0 micrograms/kg/injection, schedule: Q01DX009 (ip), vehicle: saline + alcohol) 97 % of control; (dose: 25.0 micrograms/kg/injection, schedule: Q01DX009 (ip), vehicle: saline) 107 % of control; (dose: 25.0 nanograms/kg/injection, schedule: Q## X009 (ip), vehicle: other) 94 % of control; (dose: 50.0 micrograms/kg/injection, schedule: Q01DX009 (ip), vehicle: saline + alcohol) 105 % of control and 122 % of control; (dose: 50.0 micrograms/kg/injection, schedule: Q01DX009 (ip), vehicle: saline) 116 % of control. Further, the T/C was 111 % of control (dose: 100.0 micrograms/kg/injection, schedule: Q01DX009 (ip), vehicle: saline + alcohol); 111 % of control and 117 % of control (dose: 200.0 micrograms/kg/injection, schedule: Q01DX009 (ip), vehicle: saline + alcohol); 88 % of control (dose: 200.0 nanograms/kg/injection, schedule: Q## X009 (ip), vehicle: other); 102 % of control (dose: 400.0 nanograms/kg/injection, schedule: Q## X009 (ip), vehicle: other).
`COC(=O)/C=C/c1ccc([N+](=O)[O-])cc1`: the T/C reads like this: under setting [10], 118 % of control; under setting [11], 113 % of control; (dose: 400.0 mg/kg/injection, schedule: Q04DX003 (ip), vehicle: saline with Tween-80) 109 % of control.
